pIC50: −log10 of the molar value.
Tested on: 857933-349-R-J2-PDC complex spheroid viability
Test: Anticancer human tumor 857933-349-R-J2-PDC patient-derived colon adenocarcinoma cell line growth inhibition [POLQ]
Details: for pIC50: curve of first compound; for viability, T/C: stronger effect = lower value
In short: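 Patient-derived tumour cells were co-cultured with HUVEC and mesenchymal stem cells as multicellular spheroids at 37 °C. They were treated with POLQ inhibitors (novobiocin, ART-558, RP6685) alone or combined with other agents. Top concentrations were at or near clinical Cmax (otherwise 10 microM; SN-38 at 1 microM), decreasing in half-log steps.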

[1] = second compound 0.0316 µM, first compound 0.0316 µM
[2] = second compound 0.0316 µM, first compound 0.1 µM
[3] = second compound 0.0316 µM, first compound 0.316 µM
[4] = second compound 0.0316 µM, first compound 1 µM
[5] = second compound 0.0316 µM, first compound 3.16 µM
[6] = second compound 0.0316 µM, first compound 10 µM
[7] = second compound 0.1 µM, first compound 0.0316 µM
[8] = second compound 0.1 µM, first compound 0.1 µM
[9] = second compound 0.1 µM, first compound 0.316 µM
[10] = second compound 0.1 µM, first compound 1 µM
[11] = second compound 0.1 µM, first compound 3.16 µM
[12] = second compound 0.1 µM, first compound 10 µM
[13] = second compound 0.316 µM, first compound 0.0316 µM
[14] = second compound 0.316 µM, first compound 0.1 µM
[15] = second compound 0.316 µM, first compound 0.316 µM
[16] = second compound 0.316 µM, first compound 1 µM
[17] = second compound 0.316 µM, first compound 3.16 µM
[18] = second compound 0.316 µM, first compound 10 µM
[19] = second compound 1 µM, first compound 0.0316 µM
[20] = second compound 1 µM, first compound 0.1 µM
[21] = second compound 1 µM, first compound 0.316 µM
[22] = second compound 1 µM, first compound 1 µM
[23] = second compound 1 µM, first compound 3.16 µM
[24] = second compound 1 µM, first compound 10 µM
[25] = second compound 3.16 µM, first compound 0.0316 µM
[26] = second compound 3.16 µM, first compound 0.1 µM
[27] = second compound 3.16 µM, first compound 0.316 µM
[28] = second compound 3.16 µM, first compound 1 µM
[29] = second compound 3.16 µM, first compound 3.16 µM
[30] = second compound 3.16 µM, first compound 10 µM
[31] = second compound 10 µM, first compound 0.0316 µM
[32] = second compound 10 µM, first compound 0.1 µM
[33] = second compound 10 µM, first compound 0.316 µM
[34] = second compound 10 µM, first compound 1 µM
[35] = second compound 10 µM, first compound 3.16 µM
[36] = second compound 10 µM, first compound 10 µM
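Further: spheroids exposed to compounds for seven days before readout.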

Q: Which results are given for `COc1cc(C2c3cc4c(cc3C(OC3OC5COC(C)OC5C(O)C3O)C3COC(=O)C23)OCO4)cc(OC)c1O` (stereo unspecified) + Cc1cccc(N(C)C(=O)C2C(O)CCN2c2nc(C)cc(C(F)(F)F)c2C#N)c1?
A: pIC50 (second compound 0.0316 µM): 6.14; pIC50 (second compound 0.1 µM): 6.26; pIC50 (second compound 0.316 µM): 6.10; pIC50 (second compound 1 µM): 6.27; pIC50 (second compound 3.16 µM): 6.62; pIC50 (second compound 10 µM): 6.49; viability, T/C [1]: 86.1%; viability, T/C [2]: 81.9%; viability, T/C [3]: 60%; viability, T/C [4]: 47%; viability, T/C [5]: 37.1%; viability, T/C [6]: 33.9%; viability, T/C [7]: 111%; viability, T/C [8]: 92.6%; viability, T/C [9]: 51.5%; viability, T/C [10]: 49.3%; viability, T/C [11]: 42.4%; viability, T/C [12]: 27.2%; viability, T/C [13]: 83.2%; viability, T/C [14]: 83%; viability, T/C [15]: 60%; viability, T/C [16]: 49.9%; viability, T/C [17]: 36%; viability, T/C [18]: 35.2%; viability, T/C [19]: 86.5%; viability, T/C [20]: 68.5%; viability, T/C [21]: 60.4%; viability, T/C [22]: 40%; viability, T/C [23]: 36.5%; viability, T/C [24]: 34.7%; viability, T/C [25]: 72.3%; viability, T/C [26]: 80.5%; viability, T/C [27]: 41.6%; viability, T/C [28]: 36%; viability, T/C [29]: 38%; viability, T/C [30]: 33.4%; viability, T/C [31]: 79.1%; viability, T/C [32]: 66%; viability, T/C [33]: 49.1%; viability, T/C [34]: 40.9%; viability, T/C [35]: 37.9%; viability, T/C [36]: 33.3%

Q: With `COc1cccc2c1C(=O)c1c(O)c3c(c(O)c1C2=O)CC(O)(C(=O)CO)CC3OC1CC(N)C(O)C(C)O1` (stereo unspecified) + Cc1cccc(N(C)C(=O)C2C(O)CCN2c2nc(C)cc(C(F)(F)F)c2C#N)c1 as the compound, how does the pIC50 (second compound 0.0316 µM) read?
A: Its pIC50 is 6.66.

Q: What about the pIC50 (second compound 0.1 µM) of the same compound?
A: Its pIC50 is 6.50.

Q: What about the pIC50 (second compound 0.316 µM) of the same compound?
A: The pIC50 was 6.52.

Q: And the pIC50 (second compound 1 µM)?
A: Its pIC50 is 6.71.

Q: And the pIC50 (second compound 3.16 µM)?
A: Its pIC50 is 6.70.

Q: And the pIC50 (second compound 10 µM)?
A: The pIC50 was 6.75.

Q: What about the viability, T/C [1] of the same compound?
A: The viability, T/C was 86.9%.

Q: And the viability, T/C [2]?
A: Its viability, T/C is 62.2%.

Q: And the viability, T/C [3]?
A: The viability, T/C was 47.1%.

Q: And the viability, T/C [4]?
A: Its viability, T/C is 17%.

Q: And the viability, T/C [5]?
A: The viability, T/C was 0.52%.

Q: What about the viability, T/C [6] of the same compound?
A: Its viability, T/C is 0.28%.

Q: And the viability, T/C [7]?
A: The viability, T/C was 76.9%.

Q: And the viability, T/C [8]?
A: The viability, T/C was 79.5%.

Q: What about the viability, T/C [9] of the same compound?
A: Its viability, T/C is 48.4%.

Q: What about the viability, T/C [10] of the same compound?
A: The viability, T/C was 12.9%.

Q: What about the viability, T/C [11] of the same compound?
A: The viability, T/C was 0.41%.

Q: What about the viability, T/C [12] of the same compound?
A: The viability, T/C was 0.35%.

Q: And the viability, T/C [13]?
A: The viability, T/C was 70.4%.

Q: What about the viability, T/C [14] of the same compound?
A: Its viability, T/C is 79.1%.

Q: What about the viability, T/C [15] of the same compound?
A: The viability, T/C was 46.7%.

Q: What about the viability, T/C [16] of the same compound?
A: Its viability, T/C is 14%.

Q: And the viability, T/C [17]?
A: Its viability, T/C is 0.45%.

Q: And the viability, T/C [18]?
A: Its viability, T/C is 0.46%.

Q: What about the viability, T/C [19] of the same compound?
A: The viability, T/C was 74.1%.

Q: And the viability, T/C [20]?
A: Its viability, T/C is 60.1%.

Q: And the viability, T/C [21]?
A: Its viability, T/C is 42.3%.

Q: And the viability, T/C [22]?
A: The viability, T/C was 6.42%.

Q: What about the viability, T/C [23] of the same compound?
A: Its viability, T/C is 0.28%.

Q: And the viability, T/C [24]?
A: The viability, T/C was 0.34%.

Q: And the viability, T/C [25]?
A: Its viability, T/C is 86.2%.

Q: What about the viability, T/C [26] of the same compound?
A: The viability, T/C was 66.4%.

Q: What about the viability, T/C [27] of the same compound?
A: Its viability, T/C is 40.2%.

Q: What about the viability, T/C [28] of the same compound?
A: Its viability, T/C is 7.89%.

Q: What about the viability, T/C [29] of the same compound?
A: The viability, T/C was 0.38%.

Q: And the viability, T/C [30]?
A: Its viability, T/C is 0.47%.

Q: What about the viability, T/C [31] of the same compound?
A: Its viability, T/C is 65.9%.

Q: And the viability, T/C [32]?
A: Its viability, T/C is 64.1%.

Q: What about the viability, T/C [33] of the same compound?
A: The viability, T/C was 35.7%.

Q: What about the viability, T/C [34] of the same compound?
A: Its viability, T/C is 4.82%.

Q: What about the viability, T/C [35] of the same compound?
A: The viability, T/C was 0.36%.

Q: And the viability, T/C [36]?
A: Its viability, T/C is 0.46%.

Q: How did the pIC50 (second compound 0.0316 µM) turn out when `O=c1[nH]cc(F)c(=O)[nH]1` + Cc1cccc(N(C)C(=O)C2C(O)CCN2c2nc(C)cc(C(F)(F)F)c2C#N)c1 was run?
A: The pIC50 was 5.61.

Q: What about the pIC50 (second compound 0.1 µM) of the same compound?
A: Its pIC50 is 5.51.

Q: What about the pIC50 (second compound 0.316 µM) of the same compound?
A: Its pIC50 is 5.51.

Q: And the pIC50 (second compound 1 µM)?
A: The pIC50 was 5.48.

Q: And the pIC50 (second compound 3.16 µM)?
A: Its pIC50 is 5.53.

Q: What about the pIC50 (second compound 10 µM) of the same compound?
A: The pIC50 was 5.68.

Q: And the viability, T/C [1]?
A: The viability, T/C was 90.7%.

Q: What about the viability, T/C [2] of the same compound?
A: Its viability, T/C is 85.8%.

Q: What about the viability, T/C [3] of the same compound?
A: Its viability, T/C is 95.5%.

Q: And the viability, T/C [4]?
A: The viability, T/C was 77.8%.

Q: What about the viability, T/C [5] of the same compound?
A: The viability, T/C was 42.6%.

Q: What about the viability, T/C [6] of the same compound?
A: Its viability, T/C is 29.5%.

Q: And the viability, T/C [7]?
A: Its viability, T/C is 123%.

Q: And the viability, T/C [8]?
A: Its viability, T/C is 109%.

Q: What about the viability, T/C [9] of the same compound?
A: Its viability, T/C is 106%.

Q: What about the viability, T/C [10] of the same compound?
A: Its viability, T/C is 74.9%.

Q: What about the viability, T/C [11] of the same compound?
A: Its viability, T/C is 50%.

Q: What about the viability, T/C [12] of the same compound?
A: Its viability, T/C is 30%.

Q: And the viability, T/C [13]?
A: Its viability, T/C is 102%.

Q: What about the viability, T/C [14] of the same compound?
A: Its viability, T/C is 105%.

Q: And the viability, T/C [15]?
A: Its viability, T/C is 80.3%.

Q: What about the viability, T/C [16] of the same compound?
A: The viability, T/C was 82%.

Q: What about the viability, T/C [17] of the same compound?
A: Its viability, T/C is 43.9%.

Q: And the viability, T/C [18]?
A: Its viability, T/C is 34.8%.

Q: What about the viability, T/C [19] of the same compound?
A: The viability, T/C was 94.3%.

Q: And the viability, T/C [20]?
A: The viability, T/C was 95.3%.

Q: And the viability, T/C [21]?
A: The viability, T/C was 77.4%.

Q: What about the viability, T/C [22] of the same compound?
A: The viability, T/C was 85.8%.

Q: What about the viability, T/C [23] of the same compound?
A: Its viability, T/C is 50.7%.

Q: What about the viability, T/C [24] of the same compound?
A: Its viability, T/C is 30.6%.

Q: What about the viability, T/C [25] of the same compound?
A: Its viability, T/C is 93.8%.

Q: And the viability, T/C [26]?
A: The viability, T/C was 92.6%.

Q: What about the viability, T/C [27] of the same compound?
A: Its viability, T/C is 85.8%.

Q: And the viability, T/C [28]?
A: Its viability, T/C is 69.7%.

Q: And the viability, T/C [29]?
A: Its viability, T/C is 49.1%.

Q: And the viability, T/C [30]?
A: Its viability, T/C is 27.6%.

Q: And the viability, T/C [31]?
A: The viability, T/C was 90.8%.

Q: And the viability, T/C [32]?
A: The viability, T/C was 122%.

Q: And the viability, T/C [33]?
A: Its viability, T/C is 99.2%.

Q: And the viability, T/C [34]?
A: Its viability, T/C is 68.9%.

Q: And the viability, T/C [35]?
A: Its viability, T/C is 41.9%.

Q: What about the viability, T/C [36] of the same compound?
A: The viability, T/C was 29.3%.
